How the values were obtained:
[1] = system: C2C12; assay: Western blot of PKA isoforms, pCREB, EPAC1/2; format: cell-based; settings: 1 μM
Method: (§1) Cells were lysed with RIPA buffer and protein concentration was determined by BCA. […] Variations in intensity were expressed as % of basal (day 0) and expressed as mean±SEM. All results were calculated as a percentage of non-differentiated controls to minimize the intrinsic variation among different experiments.
To study the CAMP signaling pathway, we analyzed the expression of PKA on its three catalytic isoforms PKAα, PKAβ and PKAγ as well as EPAC1/2. […] Tenofovir reduced its phosphorylation (154±9% tenofovir vs 247±30% control at day 4, p<0.05, FIG. 3B).

[2] = system: C2C12; settings: dipyridamole 1 μM ± PSB-603 1 μM
Method: as §1

[3] = system: K/B×N serum transfer-induced arthritis; assay: K/B×N serum transfer-induced arthritis, acute model: joint thickness, clinical score, body weight; format: in vivo, C57BL/6J mice
Method: In their quest for a model of inflammatory arthritis which could display associated sarcopenia the inventors employed serum transfer from K/B×N progeny in 12-wk-old C57BL/6J mice. Arthritic K/B×N mice were generated by crossing KRN mice with NOD/Lt mice. Serum was collected and pulled. Age-matched, male recipient, 12-wk-old C57BL/6J mice were purchased from Charles River Laboratories (Barcelona, España). C57BL/6J mice were injected with pooled serum (100 μl, I.P.) from K/B×N mice on day 0 and 2.
(§2) Development of arthritis was assessed daily, and the severity of arthritis was assessed in each paw on a 4-point scale defined as follows: 0=normal appearance, 1=localized edema/erythema over one surface of the paw, 2=edema/erythema involving more than one surface of the paw, and 3-4=marked edema/erythema involving the whole paw. Scores of all 4 paws were added for a composite score. All motor activity tests were performed prior to serum inoculation and at the highest point of inflammation. Mice were euthanized on day 14. Gastronemius and quadriceps were collected for protein and RNA extraction. Tibialis and soleus were included for freeze histology following the indications of H. Meng (1). Bones were prepared for micro-computed tomography (microCT) and histology. White adipose tissue (WAT) and brown adipose tissue (BAT) were collected for histology and protein extraction. Blood was drawn and serum was isolated for measurement of inflammatory cytokines and C-reactive protein (CPR).
(§3) Animals were sacrificed 30 days after serum transfer.
as §2, with “Mice were weighted weekly. Development” for “Development”, “16 for acute inflammation model or 30 days for Inflammation resolved model. A representative photo of body structure and muscle of pawn were taken on this day.” for “14.”, “was” for “and quadriceps were”, “(see references in ref. 44).” for “(1).”, “histology.” for “histology. White adipose tissue (WAT) and brown adipose tissue (BAT) were collected for histology and protein extraction.”

[4] = system: K/B×N serum transfer-induced arthritis; assay: Resolved inflammation model (30 days): tissues weight, inflammation, body weight; format: in vivo, C57BL/6J mice; settings: for BAT, Absolute weight / Bodyweight, Absolute weight / EDL, Absolute weight / Gastronemius, Absolute weight / Tibialis, Absolute weight / WAT, Absolute weight: resolved model
Method: as §3
as §2, with “Mice were weighted weekly. Development” for “Development”, “16 for acute inflammation model or 30 days for Inflammation resolved model. A representative photo of body structure and muscle of pawn were taken on this day.” for “14.”, “was” for “and quadriceps were”, “(see references in ref. 44).” for “(1).”, “histology.” for “histology. White adipose tissue (WAT) and brown adipose tissue (BAT) were collected for histology and protein extraction.”
Body weight and muscle loss continue happening until day 30 when inflammation is resolved (FIG. 15), and dipy treatment continues reverting inflammation effects (FIG. 15A).

[5] = system: K/B×N serum transfer-induced arthritis; assay: Atrogenes mRNA expression (RT-PCR) in gastrocnemius; format: in vivo, C57BL/6J mice; settings: RA+Dipy
Method: Total RNA was isolated from crushed frozen gastrocnemius using TRIzol reagent (Roche Diagnostics, Barcelona, Spain) following manufacturer's instructions. A total of 1 μg RNA was reverse transcribed with a High Capacity cDNA Reverse Transcription Kit (Applied Biosystems, San Francisco, CA, USA) at […], including the following reagents, in the same reaction: RNase Inhibitor 1 U/μL, Random Hexamers […], MgCl2 5 mM, PCR buffer II 1× and dNTPs 1 mM. Relative quantification of gene expression was performed via real-time RT-PCR on a Step One Plus (Applied Biosystems) with Power UP SYBR Green MasterMix according to the manufacturer's protocol. The primers were provided from Sigma-Aldrich according to the primer bank at https://pga.mgh.harvard.edu/primerbank/. Gene expression levels were calculated with the ΔΔCt method.

[6] = Body composition by DXA scan; format: in vivo, C57BL/6J mice; settings: healthy mice, dipy treatment alone, 2 weeks
Method: Previously to arthritis induction and sacrifice day, all mice underwent DXA scan. For DXA analysis, a Lunar PIXImus densitometer (software version 2.10) was calibrated using a hydroxyapatite phantom provided by the manufacturer (Lunar Corp, Madison, WI). Subsequently, mice were anesthetized and whole-body scans were conducted. Data analysis consisted of whole-body lean mass, fat mass, bone mineral density and bone mineral content. […] Previously to arthritis induction and sacrifice day, all mice underwent DXA scan. For DXA analysis, a Lunar PIXImus densitometer (software version 2.10) was calibrated using a hydroxyapatite phantom provided by the manufacturer (Lunar Corp, Madison, WI). Subsequently, mice were anesthetized and whole-body scans were conducted. Data analysis consisted of whole-body lean mass, fat mass, bone mineral density and bone mineral content.

[7] = RA mice, dipy started 7 days after serum transfer

Structure (SMILES): OCCN(CCO)c1nc(N2CCCCC2)c2nc(N(CCO)CCO)nc(N3CCCCC3)c2n1 [dipyridamole, 2,6-bis(Diethanolamino)-4,8-dipiperidinopyrimido[5,4-d]pyrimidine]
- pCREB (% of basal) ([1]; day 4, control 247±30%): 275±73%
- EPAC2 protein expression ([1]; within differentiation): decreased
- PAX7 protein expression ([2]; 2% HS, day 1): 198±24%
- MHC protein expression ([2]; day 1): 95±13%
- Myf5 protein expression ([2]; day 3): 79.48±31%
- PKAα protein expression ([2]; day 4): 358±156%
- pAMPK expression ([2]; day 4): 284±79.8%
- pCREB ([2]; day 4): 399.6±119.8%
- Weight loss ([3]; arthritic mice, 2 weeks of treatment, arthritic 14.2±4.1%): 6.2±3.4%
- Paw (joint) thickness ([3]; arthritic mice, daily dipyridamole, 2 wk, arthritic 1.72±0.09): 0.5±0.01 mm
- Clinical score (inflammation) ([3]; arthritic mice, daily dipyridamole, 2 wk, arthritic 14±1): 5±3
- Hind paw musculature (macroscopic) ([3]; healthy mice, dipy alone, two weeks): no significant changes
- Percentage of weight ([3]; healthy mice, dipyridamole 25 mg/kg/day alone, 2 weeks): did not change
- Body weight [4, 7]: body weight gain starting one week after first dipy dose
- Joint inflammation [4, 7]: complete reversion of inflammation
- BAT, Absolute weight ([4]; Dipy alone): 0.15 ± 0.01 g
- Bodyweight, Absolute weight ([4]; Dipy alone): 27 ± 0.5 g
- EDL, Absolute weight ([4]; Dipy alone): 0.03 ± 0.01 g
- Gastronemius, Absolute weight ([4]; Dipy alone): 0.39 ± 0.03 g
- Tibialis, Absolute weight ([4]; Dipy alone): 0.16 ± 0.02 g
- WAT, Absolute weight ([4]; Dipy alone): 0.14 ± 0.06 g
- BAT, Absolute weight ([4]; RA + Dipy D 0): 0.17 ± 0.01 g
- EDL, Absolute weight ([4]; RA + Dipy D 0): 0.03 ± 0.01 g
- Gastronemius, Absolute weight ([4]; RA + Dipy D 0): 0.37 ± 0.02 g
- Tibialis, Absolute weight ([4]; RA + Dipy D 0): 0.11 ± 0.01 g
- WAT, Absolute weight ([4]; RA + Dipy D 0): 0.15 ± 0.08 g
- Bodyweight, Absolute weight ([4]; RA + Dipy D 0 (preventive)): 26.4 ± 1.31 g
- BAT, Absolute weight ([4]; RA + Dipy D 7): 0.15 ± 0.01 g
- Gastronemius, Absolute weight ([4]; RA + Dipy D 7): 0.33 ± 0.02 g
- Tibialis, Absolute weight ([4]; RA + Dipy D 7): 0.05 ± 0.01 g
- WAT, Absolute weight ([4]; RA + Dipy D 7): 0.18 ± 0.12 g
- Bodyweight, Absolute weight ([4]; RA + Dipy D 7 (therapeutic)): 27.26 ± 1.20 g
- Atrogin-1 mRNA expression ([5]; RA 5.40±1.37, Sham 1.94±0.33): 0.29±0.09
- Murf1 mRNA expression ([5]; RA 8.71±2.75, Sham 1.60±0.35): 1.60±0.22
- Body composition (DXA) [6]: did not produced alterations in body composition
